This note sets out measurements from BindingDB's records for PubMed 32492596 (Tsinghua University, 2020).

Experiment [1] deals with Stromal cell-derived factor 1 (Homo sapiens, UniProt P48061). Description: Inhibition of SDF-1 alpha induced cell migration in human SUP-T1 cells pre-incubated for 30 mins followed by SDF-1 alpha addition measured after 3 hrs by cell Titer-96 reagent based analysis.
Experiment [2] has as its target C-X-C chemokine receptor type 4 (Homo sapiens, UniProt P61073). Briefly: Binding affinity to CXCR4 (unknown origin) expressed in CHO cells incubated for 40 mins by competitive binding assay method.

Each structure is given as a SMILES string.

C-X-C chemokine receptor type 4, sequence (P61073 whole entry): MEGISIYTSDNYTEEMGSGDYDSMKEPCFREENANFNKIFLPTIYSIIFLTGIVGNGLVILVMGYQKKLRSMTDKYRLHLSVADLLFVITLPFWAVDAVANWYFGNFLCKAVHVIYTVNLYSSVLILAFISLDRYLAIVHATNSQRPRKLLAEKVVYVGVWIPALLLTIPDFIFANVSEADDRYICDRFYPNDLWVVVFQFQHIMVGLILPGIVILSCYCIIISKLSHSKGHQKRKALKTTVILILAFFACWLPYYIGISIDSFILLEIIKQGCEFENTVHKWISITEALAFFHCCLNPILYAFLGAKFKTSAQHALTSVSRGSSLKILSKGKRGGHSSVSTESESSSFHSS
Stromal cell-derived factor 1, sequence (P48061 whole entry): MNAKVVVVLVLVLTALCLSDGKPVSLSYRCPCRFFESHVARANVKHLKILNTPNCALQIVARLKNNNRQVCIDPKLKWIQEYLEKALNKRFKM

In the case of `CCOC(=O)C1CNc2c(OC)cc(Cc3cnc(N)nc3N)c(OC)c2C1` (stereo not given), in experiment [1], the 50% inhibitory concentration (IC50) (in general, the concentration needed to halve the response being measured) is 621 nM.
Compound `Cc1ccnc2c(N)cc(Cc3cnc(N)nc3N)cc12` came in with an IC50 in experiment [2] of 68 nM.
Compound `Nc1ncc(Cc2ccc3ncccc3c2)c(N)n1` came in with an IC50 in experiment [2] of 119 nM.
On to `COc1cc(Cc2cnc(N)nc2N)cc2c1N(CCOC(C)=O)CCC2C` (stereo not given), for which, in experiment [2], the IC50 came to 68 nM.
The compound `COc1cc(Cc2cnc(N)nc2N)cc2c(C)cc(C)nc12` showed an IC50 in experiment [2] of 122 nM.
